2 compounds from US4588718A, “Carboxy containing ester prodrugs of corticosteroids” (The Upjohn Company, priority 1984, dated 1986) can be followed below.

Data set [1] in a line: Bioconversion to the parent steroid in vivo (blood levels of test compound and parent steroid). The conditions noted are these: four female monkeys, dose equivalent to 7.5 mg/kg, injection, blood samples 0 to 8 hours; compared with methylprednisolone hemisuccinate. How it is done:
Since the compounds of Formula I are prodrugs of the parent corticosteroids, their efficacy depends on bioconversion to liberate the free corticoid in vivo. […] Four female monkeys having synchronized menstrual cycles were given on separate days three days apart doses of the compound of Examples 1 and 2 and methylprednisolone hemisuccinate equivalent to 7.5 mg/kg. Prior to dosing the monkeys were fasted overnight and each was anesthetized during dosing. A few mls of 0.01μ ion strength pH 5 sodium acetate buffer was added to the test compound and 1N sodium hydroxide was added slowly with rapid stirring until all the solids went into solution just prior to injection. Blood samples were withdrawn at times 0, 1/12, 1/4, 1, 2, 4 and 8 hours from administration of test compound and levels of test compound and parent steroid were measured.

The format of data set [2] is physicochemical. The conditions noted are these: for t 90% (time for 10% hydrolysis): 25° C., dilute aqueous solution, at the pH of optimum stability (Example 1: pH 4.7; Example 2: pH 4.6). How it is done: The most important reaction affecting shelf-life is hydrolysis of the ester or carbonate linkage. From the hydrolysis rate constants determined at 25° C. at various pH values for dilute aqueous solutions of the compounds of this invention, estimates of ^t 90% (time for 10% hydrolysis) may be calculated. Such values, calculated at the pH of optimum stability, for the compounds of Examples 1 and 2 are listed in Table I. The actual shelf-life of formulations of the above compounds would be expected to differ from the above estimates for several reasons. (1) The solubility of the parent corticosteroid formed on hydrolysis may be exceeded prior to 10% degradation of the ester. Micelle formation by the intact prodrugs results in solubilization of free corticosteroid thereby prolonging shelf-life. The degree of solubilization varies with the ester concentration, nature of the pro-moiety, and the structure of the corticosteroid. (2) Other degradation reactions besides hydrolysis may be expected to occur. These should in general be diminished due to micelle formation and can in some cases be controlled by the addition of chelating agents, antioxidants, etc. (3) Micelle formation in concentrated solutions also results in stabilization of the ester linkage toward base catalyzed hydrolysis. For example, the base catalyzed hydrolysis rate constant in a 0.267M solution of the compound of Example 1 is less than 20% the rate constant in a 5×10^-4 M solution.

The nature of the next data set: physchem. The data set is classed as physicochemical. The conditions noted are these: water, pH 4.8, water. From the text:
The compounds of this invention tend to be free flowing non-hygroscopic crystalline solids when in the acid form. While the aqueous solubility of these prodrugs is limited at very low pH values, these compounds become very soluble at pH values around 5 or higher. In this pH range the prodrugs self-associate to form micellar solutions.

Each structure is given as a SMILES string. Where only a bound is given, the exact number is not on record here.

In general, solubility refers to the concentration that dissolves in the medium under given conditions.

For `C[C@H]1C[C@@H]2[C@H]([C@@H](O)C[C@@]3(C)[C@H]2CC[C@]3(O)C(=O)COC(=O)CCCCCS(=O)(=O)CC(=O)O)[C@@]2(C)C=CC(=O)C=C12` [Example 1, methylprednisolone, 21-[6'-(carboxymethylsulfonyl)hexanoate]], the “conversion to the parent steroid (methylprednisolone) in vivo” value in data set [1] was “to at least the same extent as was methylprednisolone hemisuccinate”. In data set [2], the “pH of optimum stability” value is given as 4.7 and the “t 90% (time for 10% hydrolysis)” value was 2.0 years. Moreover, the “base catalyzed hydrolysis rate constant in a 0.267M solution relative to the rate constant in a 5×10^-4 M solution” value in data set [2] (0.267M vs 5×10^-4 M solution) was “less than 20%”. In addition, the solubility in “physchem” was more than 160 mg/mL.
In the case of `C[C@H]1C[C@@H]2[C@H]([C@@H](O)C[C@@]3(C)[C@H]2CC[C@]3(O)C(=O)COC(=O)CCCCC[S+]([O-])CC(=O)O)[C@@]2(C)C=CC(=O)C=C12` (some centres unmarked) [Example 2, methylprednisolone-21-[6'-(carboxymethylsulfinyl)hexanoate]], the “conversion to the parent steroid (methylprednisolone) in vivo” value in data set [1] was “to at least the same extent as was methylprednisolone hemisuccinate”. In data set [2], the “pH of optimum stability” value amounted to 4.6 and the “t 90% (time for 10% hydrolysis)” value is reported as 0.93 years.
